# Test results from patent US5322848A, “N-acyl-substituted azacyclic compounds, processes for their preparation, and their use as pharmaceuticals” (Dr. Lo Zembeletti S.p.A., priority 1989, dated 1994).
# Where a name gives a salt, the structure may show the parent alone.
# Experiments:
# Type in all cases: in vivo, Male Charles River mice (Swiss Strain)
# mice (tail-flick) [1] = experiment: Duration of action, mouse tail-flick graded, % activity at MTFQ ED50; conditions: sc, data referred to the free base
# Procedure: (§1) B) Tail-flick test in mice
# (§2) The methodology employed is based on that described by D'Amour and Smith, J. Pharmacol. Exp. Ther. 72, 74/1941.
# (§3) Males Charles River mice (Swiss Strain), 22-34 g body weight were used. Animals were allowed food and water ad libitum and were randomized into groups of 10 prior to experimentation.
# Test compounds were dissolved in either distilled water or distilled water plug 0. 1M AMS and administered by the subcutaneous route in a final volume of 10 ml/Kg. Control animals received 10 ml/kg of the appropriate vehicle alone. […]
# (§4) Percentage quantal protection was determined as the number of mice in which the reaction time was doubled compared to pretreatment values, expressed as a percentage of the total number of mice in the group.
# mice (tail-flick) [2] = experiment: Tail-flick test in mice; conditions: 30 min pretreatment, data referred to the free base; for ED50: Mus musculus, sc, 0.5 h, subcutaneous, read-out: ANALGESIA MOUSE TAIL-FLICK ED50; for ANALGESIA MOUSE TAIL-FLICK, % at 10 mg: 10 mg (mg/kg sc)
# Procedure: as §1, §2, §3
# Test compounds were dissolved in either distilled water or distilled water plug 0. 1M AMS and administered by the subcutaneous route in a final volume of 10 ml/Kg. Control animals received 10 ml/kg of the appropriate vehicle alone. Following a pretreatment period of 30 min., the mice were again placed under the heat source and the reaction tine re-determined.
# as §4
# [3] = test system: mice (p-phenylquinone-induced abdominal writhing); experiment: P-phenylquinone-induced abdominal writhing test in mice; conditions: Mus musculus, sc, 20 min; subcutaneous; 20 min pretreatment; data referred to the free base; read-out: ANALGESIA MOUSE WRITHING ED50
# Procedure: A) P-phenylquinone-induced abdominal writhing rest in mice
# The methodology employed is based on that described by Sigmund et al, Proc. Soc. Exptl. Biol. 95, 729/1957, modified by Milne and Twomey, Agents and Actions, 10, 31/1980.
# Male Charles River mice (Swiss Strain), 25-36 g body weight, were used. Animals were allowed food and water ad libitum and were randomized into groups of 10 prior to experimentation. Test compounds were dissolved in either distilled water or distilled water plus 0.1 M AMS, and administered by the subcutaneous route in a final volume of 10 ml/Kg. Control animals received 10 ml/Kg of the appropriate vehicle alone. Following a pretreatment period of 20 min., mice were injected intraperitoneally with p-phenylquinone, 2 mg/Kg at 37° C. in a final volume of […]. […] During this period the number of abdominal writhing responses per animal were recorded where writhing consists of an intermittent contraction of the abdomen associated with hind leg extension.
# The degree of antinociceptive protection afforded by the test co mound was determined as the mean number of writhing responses observed in the treated group (T) expressed as a percentage of the mean number of writhing response in the control group (C) according to the following formula:
# [1-(T/C]×100%=% graded protection
Structure (SMILES),"DURATION OF ACTION M. TAIL-FLICK GRADED % ACTIVITY AT MTFQ ED50, 30' (mice (tail-flick) [1])","DURATION OF ACTION M. TAIL-FLICK GRADED % ACTIVITY AT MTFQ ED50, 90' (mice (tail-flick) [1])",ED50 (mice (tail-flick) [2]),ED50 [3],"ANALGESIA MOUSE TAIL-FLICK, % at 10 mg (mice (tail-flick) [2])"
"CC1(C)CCN(C(=O)Cc2ccc3c(c2)CCCC3=O)C(CN2CCC(F)C2)C1 (stereo not drawn) [Example 25, 1-[1-oxo-3,4-dihydro-(2H)-napht-6-yl]acetyl-2-(3-fluoropyrrolidin-1-yl)methyl-4,4-dimethyl piperidine hydrochloride]",74%,56%,0.47 mg/kg,0.005 mg/kg,–
"O=C1CCCc2cc(CC(=O)N3CCCCC3CN3CCC(O)C3)ccc21 (stereo not drawn) [Example 17, 1-[1-oxo-3,4-dihydro-(2H)-napht-6-yl]acetyl-2-(3-hydroxy-pyrrolidin-1-yl)methyl piperidine]",78%,80%,3.24 mg/kg,1.78 mg/kg,–
"COC1CCN(CC2CCCCN2C(=O)Cc2ccc(Cl)c(Cl)c2)C1 (stereo not drawn) [Example 19, 1-(3,4-dichlorophenyl)acetyl-2-(3-methoxypyrrolidin-1-yl)methyl piperidine]",–,–,–,–,80%
"O=C1CCCc2cc(CC(=O)N3CCCCC3CN3CCC(F)C3)ccc21 (stereo not drawn) [Example 22, 1-[1-oxo-3,4-dihydro-(2H)-napht-6-yl]acetyl-2-(3-fluoropyrrolidin-1-yl)methyl piperidine hydrochloride]",75%,40%,0.065 mg/kg,0.005 mg/kg,–
"CC1(C)CCCN(C(=O)Cc2ccc(C(F)(F)F)cc2)C1CN1CCC(O)C1 (stereo not drawn) [Example 5, 1-(4-trifluoromethylphenyl)acetyl-2-(3-hydroxypyrrolidin-1-yl) methyl-3,3-dimethyl piperidine hydrochloride]",78%,82%,0.225 mg/kg,0.089 mg/kg,–
"CC1(C)CN(C(=O)Cc2ccc(Cl)c(Cl)c2)C(CN2CCC(O)C2)c2ccccc21 (stereo not drawn) [Example 14, 1-(3-hydroxypyrrolidin-1-yl)methyl-2-(3,4-dichlorophenyl)acetyl 4,4-dimethyl-1,2,3,4-tetrahydroisoquinoline hydrochloride]",93%,85%,0.898 mg/kg,0.087 mg/kg,–
"CC1(C)CCCN(C(=O)Cc2ccc(C(F)(F)F)cc2)C1CN1CCC(F)C1 (stereo not drawn) [Example 23, 1-(4-trifluoromethylphenyl)acetyl-2-(3-fluoropyrrolidin-1-yl) methyl-3,3-dimethylpiperidine hydrochloride]",90%,86%,0.005 mg/kg,0.003 mg/kg,–
"COC1CCN(CC2CCCCN2C(=O)Cc2ccc(C(F)(F)F)cc2)C1 (stereo not drawn) [Example 20, 1-(4-trifluoromethylphenyl)acetyl-2-(3-methoxypyrrolidin-1-yl) methyl piperidine]",–,–,–,–,80%
"CC1(C)CCCN(C(=O)Cc2ccc(Cl)c(Cl)c2)C1CN1CCC(O)C1 (stereo not drawn) [Example 6, 1-(3,4-dichlorophenyl)acetyl-2-(3-hydroxypyrrolidin-1-yl)methyl-3,3-dimethyl piperidine hydrochloride]",87%,100%,0.233 mg/kg,0.081 mg/kg,–
"C[C@]1(O)CCN(C[C@H]2CCCCN2C(=O)Cc2ccc(Cl)c(Cl)c2)C1.Cl [Example 9, (R,S)-1-(3,4-dichlorophenyl)acetyl-2-(3-hydroxy-3-methylpyrrolidin-1-yl) methyl piperidine hydrochloride]",–,–,–,–,40%
"CC1(C)CCN(C(=O)Cc2ccc(Cl)c(Cl)c2)C(CN2CCC(O)C2)C1 (stereo not drawn) [Example 7, 1-(3,4-dichlorophenyl)acetyl-2-(3-hydroxypyrrolidin-1-yl)methyl-4,4-dimethyl piperidine hydrochloride hemihydrate]",84%,74%,0.25 mg/kg,0.037 mg/kg,–
"O=C(Cc1ccc(Cl)c(Cl)c1)N1CCCCC1CN1CCC(F)C1 (stereo not drawn) [Example 18, 1-(3,4-dichlorophenyl)acetyl-2-(3-fluoropyrrolidin-1-yl)methyl piperidine hydrochloride]",80%,34%,0.021 mg/kg,0.002 mg/kg,–
